Measured values: patent US20120270812A1, “COMPOSITIONS, METHODS, AND KITS FOR DETERMINING AN ALKYL TRANSFERASE” (Duke University, priority 2009, published 2012)
Like-named read-outs stand apart in the source and are kept apart here.

Tests used:
[1] = biological target: T1, Purified human AGT with a (His)6 tag (Homo sapiens, UniProt P16455); assay: In vitro binding of radiolabeled FBG or IBG to purified AGT (TCA precipitation); details: for maximum observed AGT to BSA binding ratio: 10 μg AGT vs 10 μg BSA (nonspecific protein); for unlabeled compound concentration above which saturation was observed: binding to purified AGT
T1 construct: (His)6
T1 sequence (P16455 1-207): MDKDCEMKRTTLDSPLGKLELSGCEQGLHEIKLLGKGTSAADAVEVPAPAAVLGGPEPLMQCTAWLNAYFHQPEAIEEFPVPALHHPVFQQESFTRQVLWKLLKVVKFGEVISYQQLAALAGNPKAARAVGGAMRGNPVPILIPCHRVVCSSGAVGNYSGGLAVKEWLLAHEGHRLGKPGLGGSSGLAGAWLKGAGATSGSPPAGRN
Procedure: FIG. 9 is a graph showing binding of [^18F] FBG to purified AGT as a function of unlabeled FBG concentration. […] FBG was incubated for 30 minutes at 37° C., in the presence or absence of increasing amounts of unlabeled FBG, with 10 μg of AGT ([…]), or to control for nonspecific binding, 10 μg of BSA (▴) in a Tris-buffer. The protein-associated activity was determined by TCA precipitation.
IBG to purified AGT as a function of unlabeled IBG concentration. […] IBG with AGT ([…]) or BSA (▴).
Purified human AGT with a (His)6 tag was generously provided by Dr. Anthony E. Pegg of Hershey Medical Center, Pennsylvania State University. […] The incubation carried out in 0.1 ml 50 mM Tris-Cl, pH 7.5, 5 mM DTT, 0.1 mM EDTA in the presence of 10 μg calf thymus DNA. […] The precipitated proteins were collected on GF-C (Whatman) filters, which were washed extensively with 5% TCA. The results are expressed as the percentage of input activity retained on the filter. For each concentration, the assay was performed in triplicate.
To investigate whether AGT recognizes radiolabeled FBG and IBG as substrates, the efficacy of transfer of their radiolabeled benzyl groups to AGT was determined using the purified protein. […] The preparation of ^13C-and ^14C-labeled O^6-benzylguanosines has been reported by, e.g., Madelmont et al., J. Lab. Comp.

human AGT = biological target: T2, human AGT (Homo sapiens, UniProt P16455); assay: Depletion (inactivation) of cellular AGT activity in CHO cells transfected with pCMV-AGT; format: cell-based
T2 construct: expressed in transfected cells; host or cells: CHO-K1 cells, geneticin-selected clones, plasmid pCMV-AGT
T2 sequence (P16455 1-207): T1 sequence (P16455 1-207)
Procedure: FIG. 8 is a graph showing depletion of cellular AGT activity by unlabeled 6-(4-fluoro-benzyloxy)-9H-purin-2-ylamine (O^6-4-fluorobenzylguanine (FBG)) and 6-(iodo-benzyloxy)-9H-purin-2-ylamine (O^6-iodobenzylguanine (IBG)). CHO cells transfected with pCMV-AGT were incubated with varying concentrations of IBG (▪) or FBG ([…]) for 4 hours, and the AGT activity associated with the cells was determined. The results are expressed as the percentage of the AGT activity present in cell cultures that were not treated with FBG or IBG.
CHO-K1 cells were maintained in αMEM (Gibco, Grand Island, N.Y.) containing 10% fetal bovine serum. […]
Inactivation of cellular AGT was measured by adding varying concentrations of FBG or IBG to cell cultures that had reached 80-90% confluence. […] AGT activity was measured by assaying the loss of [^3H]—O^6-methylguanine from a [^3H] methylated calf thymus DNA substrate as described by, e.g., Dolan et al., PNAS, 87:5368-5372 (1990). The results are expressed as the percentage of the AGT activity present in cell cultures that were not treated with FBG or IBG. […]
Because IBG is a new compound, its ability to deplete AGT was determined using CHO cells transfected with pCMV-AGT to express AGT. In parallel, the ability of FBG to deplete AGT under the same conditions also was measured. […]

[2] = Stability during reversed-phase chromatography with 0.1% TFA in water; format: physicochemical; details: 0.1% TFA in water (pH 2) as a co-solvent
Source text: A combination of radio-TLC, and normal-phase and reversed-phase HPLC was used to verify that the final product was indeed IBG and not the 3-iodobenzyl alcohol. Very little if any of 3-iodobenzyl alcohol was detected in the reaction mixture. In addition, the final product bound to AGT specifically (vide infra), which further supports its authenticity. […] This may be due to the lack of water in the reaction mixture or a rate factor may be involved. Both IBG and FBG were stable during reversed-phase chromatography involving 0.1% TFA in water (pH 2) as a co-solvent.

Row | SMILES | maximum observed AGT to BSA binding ratio [1] | unlabeled compound concentration above which saturation was observed [1] | stability during reversed-phase chromatography [2] | other results
1 | Nc1nc(OCc2ccc([18F])cc2)c2nc[nH]c2n1 [[^18F]FBG, 6-(4-[^18F]Fluoro-benzyloxy)-9H-purin-2-ylamine] | 661 | higher than 2 μM | – | percent of input activity that bound to AGT, maximum ([1]; at 0.5 μM of unlabeled FBG, 10 μg AGT, 30 minutes at 37° C.): about 90%
2 | Nc1nc(OCc2cccc([131I])c2)c2nc[nH]c2n1 [[^131I]IBG, 6-(3-[^131I]Iodo-benzyloxy)-9H-purin-2-ylamine] | 35 | higher than 3 μM | – | percent of radiolabeled compound bound to AGT ([1]; over a wide range of unlabeled IBG concentrations, 10 μg AGT, 30 minutes at 37° C.): About 60%
3 | Nc1nc(OCc2ccc(F)cc2)c2nc[nH]c2n1 [FBG, 6-(4-fluoro-benzyloxy)-9H-purin-2-ylamine, reference compound] | – | – | stable | IC50 (human AGT; CHO cells transfected with pCMV-AGT, 4 hours of drug treatment, read-out: IC50 for depleting AGT): 50 nM; IC50 ([1]; 10 μg AGT, 30 minutes at 37° C., read-out: IC50 (binding to purified AGT as a function of unlabeled compound concentration)): 5000 nM
4 | Nc1nc(OCc2cccc(I)c2)c2[nH]cnc2n1 [IBG, 6-(3-Iodo-benzyloxy)-9H-purin-2-ylamine] | – | – | stable | IC50 (human AGT): 15 nM; IC50 [1]: ~6000 nM
